Experimental data reported in US20260262643A1, “HERBICIDAL BENZOXAZINES” (FMC CORPORATION, priority 2022, published 2026).

Tests used:
[1] = tested on: barnyardgrass; test: Test A preemergence; assay type: in vivo, Echinochloa crusgalli; settings: 1000 g ai/ha, 0 to 100 scale (0 no effect, 100 complete control), 10 days
How it was run: (§1)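 Seeds in loam–sand blend received a directed preemergence soil spray of compound in non-phytotoxic solvent with surfactant; postemergence plants (2–10 cm, one- to two-leaf stage) were sprayed with the same formulation. After 10 days in greenhouse, injury was rated visually versus untreated controls, 0 (no effect) to 100 (complete control).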

[2] = tested on: foxtail, giant; test: Test A preemergence; assay type: in vivo, Setaria faberi; settings: 1000 g ai/ha, 0 to 100 scale (0 no effect, 100 complete control), 10 days
How it was run: as §1

[3] = tested on: kochia; test: Test A preemergence; assay type: in vivo, Bassia scoparia; settings: 1000 g ai/ha, 0 to 100 scale (0 no effect, 100 complete control), 10 days
How it was run: as §1

[4] = tested on: Pigweed, Redroot; test: Test A preemergence; assay type: in vivo, Amaranthus retroflexus; settings: 1000 g ai/ha, 0 to 100 scale (0 no effect, 100 complete control), 10 days
Excerpt: (§2) Seeds of plant species selected from barnyardgrass (Echinochloa crusgalli), blackgrass (Alopecurus myosuroides), corn (Zea mays), foxtail, giant (giant foxtail, Setaria faberi), goosegrass (Eleusine indica), kochia (Bassia scoparia), oat, wild (wild oat, Avena fatua), pigweed, palmer (palmer amaranth, palmer pigweed, Amaranthus palmeri), Pigweed, Redroot (redroot pigweed, Amaranthus retroflexus), ragweed (common ragweed, Ambrosia artemisiifolia), ryegrass, Italian (italian ryegrass, Lolium multiflorum), soybean (Glycine max), and wheat (Triticum aestivum) were planted into a blend of loam soil and sand and treated preemergence with a directed soil spray using test chemicals formulated in a non-phytotoxic solvent mixture which included a surfactant. At the same time, plants selected from these crops and weed species and also galium (catchweed bedstraw, Galium aparine) and horseweed (Erigeron canadensis) were planted in pots containing the same blend of loam soil and sand and treated with postemergence applications of test chemicals formulated in the same manner. Plants ranged in height from 2 to 10 cm and were in the one- to two-leaf stage for the postemergence treatment. Treated plants and untreated controls were maintained in a greenhouse for 10 days, after which time all treated plants were compared to untreated controls and visually evaluated for injury. Plant response ratings, summarized in Table A, are based on a 0 to 100 scale where 0 is no effect and 100 is complete control. A dash (-) response means no test result.

[5] = tested on: ragweed; test: Test A preemergence; assay type: in vivo, Ambrosia artemisiifolia; settings: 1000 g ai/ha, 0 to 100 scale (0 no effect, 100 complete control), 10 days
How it was run: as §1

[6] = tested on: ryegrass, Italian; test: Test A preemergence; assay type: in vivo, Lolium multiflorum; settings: 1000 g ai/ha, 0 to 100 scale (0 no effect, 100 complete control), 10 days
How it was run: as §1

[7] = tested on: barnyardgrass; test: Test A postemergence; assay type: in vivo, Echinochloa crusgalli; settings: 1000 g ai/ha, Postemergence; 0 to 100 scale
How it was run: as §1

[8] = tested on: blackgrass; test: Test A postemergence; assay type: in vivo, Alopecurus myosuroides; settings: 1000 g ai/ha, Postemergence; 0 to 100 scale
How it was run: as §1

[9] = tested on: corn; test: Test A postemergence; assay type: in vivo, Zea mays; settings: 1000 g ai/ha, Postemergence; 0 to 100 scale
How it was run: as §1

[10] = tested on: foxtail, giant; test: Test A postemergence; assay type: in vivo, Setaria faberi; settings: 1000 g ai/ha, Postemergence; 0 to 100 scale
How it was run: as §1

[11] = tested on: kochia; test: Test A postemergence; assay type: in vivo, Bassia scoparia; settings: 1000 g ai/ha, Postemergence; 0 to 100 scale
How it was run: as §1

[12] = tested on: Pigweed, Redroot; test: Test A postemergence; assay type: in vivo, Amaranthus retroflexus; settings: 1000 g ai/ha, Postemergence; 0 to 100 scale
Excerpt: as §2

[13] = tested on: ragweed; test: Test A postemergence; assay type: in vivo, Ambrosia artemisiifolia; settings: 1000 g ai/ha, Postemergence; 0 to 100 scale
How it was run: as §1

[14] = tested on: ryegrass, Italian; test: Test A postemergence; assay type: in vivo, Lolium multiflorum; settings: 1000 g ai/ha, Postemergence; 0 to 100 scale
How it was run: as §1

[15] = tested on: wheat; test: Test A postemergence; assay type: in vivo, Triticum aestivum; settings: 1000 g ai/ha, Postemergence; 0 to 100 scale
How it was run: as §1

[16] = tested on: galium; test: Test A postemergence; assay type: in vivo, Galium aparine; settings: 1000 g ai/ha, Postemergence; 0 to 100 scale
How it was run: as §1

[17] = tested on: barnyardgrass; test: Test B flooded paddy test; assay type: in vivo, Echinochloa crus-galli; settings: 250 g ai/ha, Flood, 13 days, 0 to 100 scale (0 no effect, 100 complete control)
How it was run: (§3)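 Percent weed or crop control, judged by eye on a 0–100 scale 13 days post-treatment, reflects compound added to a 3 cm flood maintained over 2-leaf plants in the greenhouse. Missing entries are marked with a dash.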

[18] = tested on: ducksalad; test: Test B flooded paddy test; assay type: in vivo, Heteranthera limosa; settings: 250 g ai/ha, Flood, 13 days, 0 to 100 scale (0 no effect, 100 complete control)
How it was run: as §3

[19] = tested on: rice; test: Test B flooded paddy test; assay type: in vivo, Oryza sativa; settings: 250 g ai/ha, Flood, 13 days, 0 to 100 scale (0 no effect, 100 complete control)
How it was run: as §3

[20] = tested on: sedge, umbrella; test: Test B flooded paddy test; assay type: in vivo, Cyperus difformis; settings: 250 g ai/ha, Flood, 13 days, 0 to 100 scale (0 no effect, 100 complete control)
How it was run: as §3

SMILES | Plant response rating, Barnyardgrass [1] | Plant response rating, Foxtail, Giant [2] | Plant response rating, Kochia [3] | Plant response rating, Pigweed, Redroot [4] | Plant response rating, Ragweed [5] | Plant response rating, Ryegrass, Italian [6] | Plant response rating, Barnyardgrass [7] | Plant response rating, Blackgrass [8] | Plant response rating, Corn [9] | Plant response rating, Foxtail, Giant [10] | Plant response rating, Kochia [11] | Plant response rating, Pigweed, Redroot [12] | Plant response rating, Ragweed [13] | Plant response rating, Ryegrass, Italian [14] | Plant response rating, Wheat [15] | Plant response rating, Galium [16] | Plant response rating, Barnyardgrass [17] | Plant response rating, Ducksalad [18] | Plant response rating, Rice [19] | Plant response rating, Sedge, Umbrella [20]
C[C@H]1CN(C(=O)c2cccc(-n3cccn3)c2)c2cccc(Cl)c2O1 [Compound 129] | 20 | 0 | 20 | 20 | 0 | 50 | 20 | 30 | 0 | 10 | 10 | 70 | 0 | 0 | 0 | 30 |  |  |  | 
C#Cc1cccc2c1OC(C)CN2C(=O)c1cccc(-n2cncn2)c1 (stereo not drawn) [Compound 30] | 30 | 80 | 20 | 100 | 0 | 100 | 20 | 70 | 10 | 40 | 10 | 30 | 0 | 70 | 40 |  | 0 | 0 | 0 | 0
CC1CN(C(=O)c2cccc(-n3cncn3)c2)c2cccc(Br)c2O1 (stereo not drawn) [Compound 25] | 90 | 100 | 30 | 100 | 0 | 100 | 50 | 90 | 70 | 90 | 50 | 40 | 0 | 90 | 70 |  | 0 | 35 | 0 | 0
C[C@H]1CN(C(=O)c2cccc(-n3cnnc3)c2)c2cccc(Cl)c2O1 [Compound 128] | 0 | 50 | 40 | 0 | 0 | 60 | 30 | 30 | 0 | 20 | 0 | 0 | 30 | 0 | 0 | 30 |  |  |  | 
Cc1cccc2c1OC(C)CN2C(=O)c1ccc(C#N)c(-n2cncn2)c1 (stereo not drawn) [Compound 29] | 90 | 100 | 20 | 60 | 0 | 90 | 70 | 70 | 80 | 90 | 10 | 50 | 0 | 50 | 60 |  | 0 | 0 | 0 | 0
CCC1CN(C(=O)c2ccnc(-n3cncn3)c2)c2cccc(I)c2O1 (stereo not drawn) [Compound 17] | 0 | 0 | 30 | 100 | 0 | 0 | 0 | 0 | 0 | 0 | 10 | 0 | 0 | 0 | 0 | 0 |  |  |  | 
